Test results reported in paper PMC11258331 (Scientific Reports, 2024).
Like-named read-outs stand apart in the source and are kept apart here. Marks after values point to notes of the source that are not given here. Blank lines part the entries; values can stand above or below the compound they belong to.

Assays:
healthy participants [1] = assay: Adverse events and bleeding-related AEs by treatment, phase I DDI study;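 also: counts from medical review of adverse event and bleeding-related adverse event reports, collected at selected times across the dosing interval, single US site, randomised 1:1:1 to one study part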
Experimental: Participants underwent screening evaluations to determine eligibility within 35 days of study drug administration, and eligible participants were randomly assigned 1:1:1 to a single part of the study.
Safety assessments were performed at selected times throughout the dosing interval (Supplementary Table 7). The assessments were based on medical review of AE and bleeding-related AE reports, and the results of vital sign measurements, ECG measurements, physical examinations, and clinical laboratory tests.

[2] = tested on: platelet aggregation induced by collagen; assay: Collagen (5 μg/ml)-induced platelet aggregation, light transmission aggregometry; type: in vivo, human
Experimental: (§1) PD assessments were performed on Days 1 (≤ 24 h) and 5 (≤ 72 h) of each period (Supplementary Table 8); assessments included aPTT[18], FXIc[18], and bleeding time (assessed according to the PPD® Laboratories [Austin, TX] procedure where a blood pressure cuff, situated above the incision site, provided pressure at 40 mmHg and blood from the incision was wicked with filter paper every 30 s until cessation to record bleeding time). In addition, AA (1 mM), ADP) (20 µM)-, and collagen (5 μg/ml)-induced platelet aggregation assays were performed using light transmission aggregometry (PPD® Laboratories) and performed on Days 1 and 5 (≤ 24 h) for only Period 1.

[3] = Plasma pharmacokinetics (LC-MS/MS, noncompartmental; GMR by linear mixed-effects model); details: for Increase of AUC(TAU) / Increase of Cmax: Treatment I (with milvexian) vs Treatment H (aspirin alone); for Cmax / Tmax / AUC / half-life: human, oral; for AUC: AUC(TAU); for half-life: T1/2, arithmetic mean [n] (SD);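 as to all read-outs here: participants at one US clinical research site, randomized 1:1:1 to a single study part, with 90% CIs from a mixed-effects model on log-transformed PK parameters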
Experimental: (§2) The study (ClinicalTrials.gov Identifier: NCT03698513) was conducted at 1 clinical research center in the United States. […] Participants underwent screening evaluations to determine eligibility within 35 days of study drug administration, and eligible participants were randomly assigned 1:1:1 to a single part of the study.
(§3) All statistical analyses and calculations were performed using SAS® software (SAS Institute, Inc., Cary, North Carolina; version 9.3). All safety and plasma PK/PD data were summarized using descriptive statistics. Descriptive summaries were presented for continuous variables using number of subjects (N), mean, SD; median, minimum, and maximum. […] CIs were constructed using a linear mixed-effects model with treatment as a fixed effect and measurements within participants as repeated measures fitted to the log-transformed PK parameters.

[4] = tested on: arachidonic acid (AA)-induced platelet aggregation; assay: AA (1 mM)-induced platelet aggregation, light transmission aggregometry; type: in vivo, human
Experimental: as §1

[5] = tested on: platelet aggregation induced by adenosine diphosphate (ADP); assay: ADP (20 µM)-induced platelet aggregation, light transmission aggregometry; type: in vivo, human
Experimental: as §1

[6] = in vivo
Experimental: as §2, §3

[7] = tested on: patients who underwent knee arthroplasty; details: postoperative treatment, 25 mg QD to 200 mg BID; cited from earlier work
healthy participants [8] = assay: Bleeding time (PPD Laboratories procedure); type: in vivo, human; details: milvexian alone (Treatments B, D, G)
Experimental: as §1

[9] = tested on: cytochrome P450 (CYP)–3A4; details: spray-dried dispersion formulation studies; cited from earlier work
[10] = cited from earlier work
[11] = tested on: activated partial thromboplastin time (aPTT); assay: Activated partial thromboplastin time (aPTT); type: in vivo, human; details: postdose on Day 5
Experimental: as §1

[12] = tested on: patients with acute ischemic stroke or high risk transient ischemic attack; details: 25 mg QD or 25, 50, 100, 200 mg BID on background of aspirin and clopidogrel; cited from earlier work
[13] = plasma, geometric mean (90% CI), Day 1, plasma, Treatment A (milvexian + aspirin + clopidogrel), Part 1
[14] = plasma, geometric mean (90% CI), Day 1, plasma, Treatment C (placebo + aspirin + clopidogrel), Part 1
[15] = plasma, geometric mean (90% CI), Day 1, plasma, Treatment H (placebo + aspirin), Part 3
[16] = plasma, geometric mean (90% CI), Day 1, plasma, Treatment I (milvexian + aspirin), Part 3
[17] = plasma, geometric mean [n] (90% CI), Day 5, plasma, Treatment C (placebo + aspirin + clopidogrel), Part 1
[18] = plasma, geometric mean [n] (90% CI), Day 5, plasma, Treatment H (placebo + aspirin), Part 3
[19] = plasma, Tmax, median (range), Day 1, plasma, Treatment A (milvexian + aspirin + clopidogrel), Part 1
[20] = plasma, Tmax, median (range), Day 1, plasma, Treatment C (placebo + aspirin + clopidogrel), Part 1
[21] = plasma, Tmax, median (range), Day 1, plasma, Treatment H (placebo + aspirin), Part 3
[22] = plasma, Tmax, median (range), Day 1, plasma, Treatment I (milvexian + aspirin), Part 3
[23] = plasma, Tmax, median [n] (range), Day 5, plasma, Treatment C (placebo + aspirin + clopidogrel), Part 1
[24] = plasma, Tmax, median [n] (range), Day 5, plasma, Treatment H (placebo + aspirin), Part 3
[25] = milvexian alone (Treatments B, D, G), Days 1 and 5
[26] = Day 1, Treatment A vs Treatment B (milvexian alone)
[27] = Day 1, plasma, Treatment F (milvexian + clopidogrel), Part 2
[28] = plasma, geometric mean [n] (90% CI), Day 5, plasma, Treatment D (milvexian alone), Part 2

SMILES: CC(=O)Oc1ccccc1C(=O)O [Aspirin, acetylsalicylic acid, reference compound]
Anal fissure hemorrhage (healthy participants [1]; Part 3 (Treatments G-I)): 0 n (%)
Contusion (healthy participants [1]; Part 3 (Treatments G-I)): 0 n (%)
Deaths (healthy participants [1]; Part 3 (Treatments G-I)): 0 n (%)
Discontinuations due to AEs (healthy participants [1]; Part 3 (Treatments G-I)): 0 n (%)
Epistaxis (healthy participants [1]; Part 3 (Treatments G-I)): 1 (2.6)^‡‡ n (%)
Gingival bleeding (healthy participants [1]; Part 3 (Treatments G-I)): 0 n (%)
Serious AEs (healthy participants [1]; Part 3 (Treatments G-I)): 0 n (%)
Total participants with an AE (healthy participants [1]; Part 3 (Treatments G-I)): 9 (23.7) n (%)
Total participants with bleeding event(s) (healthy participants [1]; Part 3 (Treatments G-I)): 1 (2.6) n (%)
Vessel puncture site bruise (healthy participants [1]; Part 3 (Treatments G-I)): 0 n (%)
Events of epistaxis reported by a participant (healthy participants [1]; bleeding AE): 1 events
Percentage of participants reporting AEs (healthy participants [1]; by treatment, all parts): 23.7%
Inhibition of collagen-induced aggregation compared with baseline ([2]; drug alone (Treatment E or H)): ~ 25%
Increase of AUC(TAU) ([3]; Day 1): 24%
Increase of Cmax ([3]; Day 1): 40%
Increase of AUC(TAU) ([3]; Day 5): 19%
Increase of Cmax ([3]; Day 5): 33%
Cmax [3, 13]: 3.05 µg/mL
Cmax [3, 14]: 2.97 µg/mL
Cmax [3, 15]: 2.45 µg/mL
Cmax [3, 16]: 3.45 µg/mL
Cmax [3, 17]: 2.89 µg/mL
Cmax [3, 18]: 2.67 µg/mL
Tmax [3, 19]: 1 h
Tmax [3, 20]: 1 h
Tmax [3, 21]: 0.5 h
Tmax [3, 22]: 0.5 h
Tmax [3, 23]: 0.5 h
Tmax [3, 24]: 0.508 h
Inhibition of AA-induced aggregation compared with baseline ([4]; drug alone (Treatment E or H)): ~ 95%
Inhibition of ADP-induced aggregation compared with baseline ([5]; drug alone (Treatment E or H)): ~ 15%

Mean T1/2 ([6]; human): approximately 8 h
Reduction of Cmax [6]: 14%
SMILES: O=C(O)[C@H](c1ccccc1Cl)N1CCc2sccc2C1 [Clopidogrel acid]

SMILES: C[C@@H]1CCC[C@H](n2cnc(-c3cc(Cl)ccc3-n3cc(Cl)nn3)cc2=O)c2cc(ccn2)-c2c(cnn2C(F)F)NC1=O [Milvexian]
Effect on incidence of venous thromboembolism [7]: reduced the incidence of venous thromboembolism in a dose-dependent manner
Effect on bleeding time (healthy participants [8]): did not increase bleeding times
Anal fissure hemorrhage (healthy participants [1]; Part 2 (Treatments D-F)): 0 n (%)
Contusion (healthy participants [1]; Part 2 (Treatments D-F)): 0 n (%)
Deaths (healthy participants [1]; Part 2 (Treatments D-F)): 0 n (%)
Discontinuations due to AEs (healthy participants [1]; Part 2 (Treatments D-F)): 1 (2.8)^§ n (%)
Epistaxis (healthy participants [1]; Part 2 (Treatments D-F)): 0 n (%)
Gingival bleeding (healthy participants [1]; Part 2 (Treatments D-F)): 0 n (%)
Serious AEs (healthy participants [1]; Part 2 (Treatments D-F)): 0 n (%)
Total participants with an AE (healthy participants [1]; Part 2 (Treatments D-F)): 5 (13.9) n (%)
Total participants with bleeding event(s) (healthy participants [1]; Part 2 (Treatments D-F)): 0 n (%)
Vessel puncture site bruise (healthy participants [1]; Part 2 (Treatments D-F)): 0 n (%)
Anal fissure hemorrhage (healthy participants [1]; Part 3 (Treatments G-I)): 1 (2.7) n (%)
Contusion (healthy participants [1]; Part 3 (Treatments G-I)): 0 n (%)
Deaths (healthy participants [1]; Part 3 (Treatments G-I)): 0 n (%)
Discontinuations due to AEs (healthy participants [1]; Part 3 (Treatments G-I)): 1 (2.7)^¶ n (%)
Epistaxis (healthy participants [1]; Part 3 (Treatments G-I)): 0 n (%)
Gingival bleeding (healthy participants [1]; Part 3 (Treatments G-I)): 0 n (%)
Serious AEs (healthy participants [1]; Part 3 (Treatments G-I)): 0 n (%)
Total participants with an AE (healthy participants [1]; Part 3 (Treatments G-I)): 6 (16.2) n (%)
Total participants with bleeding event(s) (healthy participants [1]; Part 3 (Treatments G-I)): 1 (2.7) n (%)
Vessel puncture site bruise (healthy participants [1]; Part 3 (Treatments G-I)): 0 n (%)
Events of anal fissure hemorrhage reported by a single participant (healthy participants [1]; bleeding AE, Part 3, Treatment G): 1 events
Change of collagen-induced platelet aggregation compared with baseline [2, 25]: < 10%
Reduction of AUC(TAU) [3, 26]: 15%
Reduction of Cmax [3, 26]: 17%
Tmax, median (range) ([3]; Day 1, plasma, Treatment A (milvexian + aspirin + clopidogrel), Part 1): 4.00 (2.13, 6.02) h
Tmax, median (range) ([3]; Day 1, plasma, Treatment B (milvexian alone), Part 1): 3.00 (2.00, 4.13) h
Tmax, median (range) ([3]; Day 1, plasma, Treatment D (milvexian alone), Part 2): 4.00 (2.00, 6.00) h
AUC(TAU), geometric mean [n] (90% CI) [3, 27]: 5042 (4621, 5503) ng•h/mL
Tmax, median (range) [3, 27]: 4.00 (2.00, 4.13) h
Tmax, median (range) ([3]; Day 1, plasma, Treatment G (milvexian alone), Part 3): 4.00 (2.00, 6.02) h
Tmax, median (range) ([3]; Day 1, plasma, Treatment I (milvexian + aspirin), Part 3): 4.00 (2.00, 6.03) h
Tmax, median [n] (range) ([3]; Day 5, plasma, Treatment B (milvexian alone), Part 1): 3.00 (0.00, 6.00) h
Tmax, median [n] (range) ([3]; Day 5, plasma, Treatment F (milvexian + clopidogrel), Part 2): 4.00 (1.00, 6.00) h
AUC ([3]; plasma, geometric mean [n] (90% CI), Day 1, plasma, Treatment B (milvexian alone), Part 1): 5.61 µg·h/mL
AUC [3, 28]: 22 µg·h/mL
Cmax [3, 13]: 0.718 µg/mL
Cmax ([3]; plasma, geometric mean (90% CI), Day 1, plasma, Treatment B (milvexian alone), Part 1): 0.868 µg/mL
Cmax ([3]; plasma, geometric mean (90% CI), Day 1, plasma, Treatment D (milvexian alone), Part 2): 0.898 µg/mL
Cmax ([3]; plasma, geometric mean (90% CI), Day 1, plasma, Treatment F (milvexian + clopidogrel), Part 2): 0.817 µg/mL
Cmax ([3]; plasma, geometric mean (90% CI), Day 1, plasma, Treatment G (milvexian alone), Part 3): 0.867 µg/mL
Cmax [3, 16]: 0.85 µg/mL
Cmax ([3]; plasma, geometric mean [n] (90% CI), Day 5, plasma, Treatment B (milvexian alone), Part 1): 2.69 µg/mL
Cmax [3, 28]: 2.67 µg/mL
Cmax ([3]; plasma, geometric mean [n] (90% CI), Day 5, plasma, Treatment F (milvexian + clopidogrel), Part 2): 2.5 µg/mL
Tmax ([3]; plasma, Median Tmax, across Treatments A and B): 3 to 4 h
Tmax ([3]; plasma, Tmax, median [n] (range), Day 5, plasma, Treatment D (milvexian alone), Part 2): 3.05 h
Effect on AA-induced platelet aggregation ([4]; milvexian alone (Treatments B, D, G), not consistent, no correlation with milvexian concentration): a decrease in arachidonic acid (AA)-induced platelet aggregation was observed
Route of metabolism [9]: predominantly metabolized by cytochrome P450 (CYP)–3A4
Urine excretion [10]: < 20%
Time by which aPTT returned to baseline [11]: ≤ 72 h
Dose response for composite of symptomatic ischemic stroke or covert brain infarction [12]: did not produce a statistically significant dose response
Change of ADP-induced platelet aggregation compared with baseline [5, 25]: < 10%

AUC ([3]; plasma, geometric mean [n] (90% CI), Day 1, plasma, Treatment A (milvexian + aspirin + clopidogrel), Part 1): 92.7 µg·h/mL
AUC ([3]; plasma, geometric mean [n] (90% CI), Day 1, plasma, Treatment C (placebo + aspirin + clopidogrel), Part 1): 93.5 µg·h/mL
AUC ([3]; plasma, geometric mean [n] (90% CI), Day 1, plasma, Treatment H (placebo + aspirin), Part 3): 93.3 µg·h/mL
AUC ([3]; plasma, geometric mean [n] (90% CI), Day 1, plasma, Treatment I (milvexian + aspirin), Part 3): 93.6 µg·h/mL
AUC [3, 17]: 92 µg·h/mL
AUC [3, 18]: 92.5 µg·h/mL
Cmax [3, 13]: 17.6 µg/mL
Cmax [3, 14]: 18.1 µg/mL
Cmax [3, 15]: 16.5 µg/mL
Cmax [3, 16]: 16.3 µg/mL
Cmax [3, 17]: 17.3 µg/mL
Cmax [3, 18]: 16.5 µg/mL
half-life ([3]; plasma, Day 1, plasma, Treatment A (milvexian + aspirin + clopidogrel), Part 1): 2.21 h
half-life ([3]; plasma, Day 1, plasma, Treatment C (placebo + aspirin + clopidogrel), Part 1): 2.25 h
half-life ([3]; plasma, Day 1, plasma, Treatment H (placebo + aspirin), Part 3): 2.4 h
half-life ([3]; plasma, Day 1, plasma, Treatment I (milvexian + aspirin), Part 3): 2.39 h
half-life ([3]; plasma, Day 5, plasma, Treatment C (placebo + aspirin + clopidogrel), Part 1): 2.23 h
half-life ([3]; plasma, Day 5, plasma, Treatment H (placebo + aspirin), Part 3): 2.39 h
Tmax [3, 19]: 2 h
Tmax [3, 20]: 2 h
Tmax [3, 21]: 2.03 h
Tmax [3, 22]: 2 h
Tmax [3, 23]: 2.02 h
Tmax [3, 24]: 3 h
SMILES: O=C(O)c1ccccc1O [Salicylic acid, salicylic acid]
